Assay results: patent US20190119284A1, “ErbB Inhibitors and Uses Thereof” (The Regents of the University of California, priority 2016, published 2019)
Read-outs that look alike come from different tables or passages of the source.

How the values were obtained:
[1] = molecular target: 2YF/3wt + NRG Ba/F3 cells (HER2YF/HER3wt) (Homo sapiens, UniProt P04626, Y1005F/Y1023F/Y1112F/Y1127F/Y1139F/Y1196F/Y1221F/Y1222F/Y1248F, cells depend on it); experiment: Ba/F3 proliferation assay, 2YF/3wt + NRG; assay type: cell-based
Procedure, shortened: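 Ba/F3 cells stably expressing HER3 and HER2 with 9 C-terminal Tyr→Phe mutations, selected for NRG dependence after IL-3 withdrawal. Cells were given DMSO or compound plus NRG (50 ng/mL final); proliferation normalized to DMSO, fit by log(inhibitor) vs response with variable slope.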

[2] = tested on: HER2/HER3 heterodimer signaling in MCF-7 cells; experiment: HER2/HER3 signaling in MCF-7 cells, pre-treat vs simultaneous NRG addition; assay type: cell-based
Description: FIGS. 2A-2D. […] FIG. 2B: NRG rescues the 72 h proliferation of CW-2 cells, which contain an activating mutation in HER3 (E928G), from HER2 inhibitors (mean±SD, n=3).
FIG. 17. MCF-7 cells were serum starved for 24 h and then either treated with compound 3 for 15 min followed by a 15 min NRG stimulation (15 min pre-treat), or compound 3 and NRG were added simultaneously for 15 min (simultaneous addition).

[3] = tested on: 2YF/3wt + IL-3 Ba/F3 cells; experiment: Ba/F3 proliferation assay, 2YF/3wt + IL-3; assay type: cell-based; conditions: Mus musculus, BaF3; Table 4; ± S.D., n = 3; 48 h Cell Titer Glo
Description: To validate the screen and test the effectiveness of counter-screening with either the same 2YF/3wt Ba/F3 cell line or the parental Ba/F3's in the presence of IL-3 to remove cytotoxic primary hits, we first tested a panel of kinase inhibitors with established mechanisms of action.
Proliferation Assays. For adherent cell lines, cells were plated onto opaque white 96 well plates (Greiner cat #655083) and allowed to adhere overnight. The following day media was changed to fresh media that contained either DMSO or the indicated concentration of drug plus NRG (50 ng/mL final concentration) as indicated. Plates were incubated at 37° C. for 72 h and proliferation was read out using Cell Titer Glo (Promega) according to the manufacturer's protocol. For Ba/F3 cell proliferation, cells, drug dilution, and any necessary growth factors (10 ng/mL IL-3 or 6.25 ng/mL NRG) were combined in a well of a 96 well plate. Plates were incubated at 37° C. for 48 h and proliferation was read out using Cell Titer Glo according to the manufacturer's protocol. For all normalized assays, proliferation was normalized to the DMSO control condition. All graphs were plotted in GraphPad Prism 6 and fit with a non-linear regression of the log(inhibitor) vs response with a variable slope where shown. All graphs are averages (+/−standard deviation) of biological triplicates each performed in technical triplicate unless otherwise noted. If only one biological replicate was performed standard deviations were derived from the technical replicates.

[4] = molecular target: ROCK1 (Homo sapiens, UniProt Q13464); experiment: Nanosyn in vitro kinase profiling: ROCK1; assay type: biochemical; conditions: for inhibition at 1 µM: compound at 1 μM
Description: (§1) This was confirmed by in vitro profiling against a panel of kinases, with compound 2 only showing potent inhibition of EGFR and Ab1 (Table 2).
(§2) In vitro Kinome Screen. In vitro profiling of compound 2 at 100 nM was conducted by Nanosyn.

[5] = molecular target: DAPK1 (Homo sapiens, UniProt P53355); experiment: Nanosyn in vitro kinase profiling: DAPK1; assay type: biochemical; conditions: for inhibition at 1 µM: compound at 1 μM
Description: as §1, §2

[6] = molecular target: GSK-3-BETA (Homo sapiens, UniProt P49841); experiment: Nanosyn in vitro kinase profiling: GSK-3-BETA; assay type: biochemical; conditions: for inhibition at 1 µM: compound at 1 μM
Description: as §1, §2

[7] = molecular target: JNK2 (Homo sapiens, UniProt P45984); experiment: Nanosyn in vitro kinase profiling: JNK2; assay type: biochemical; conditions: for inhibition at 1 µM: compound at 1 μM
Description: as §1, §2

Chain of DAPK1 (P53355 whole entry, species assumed): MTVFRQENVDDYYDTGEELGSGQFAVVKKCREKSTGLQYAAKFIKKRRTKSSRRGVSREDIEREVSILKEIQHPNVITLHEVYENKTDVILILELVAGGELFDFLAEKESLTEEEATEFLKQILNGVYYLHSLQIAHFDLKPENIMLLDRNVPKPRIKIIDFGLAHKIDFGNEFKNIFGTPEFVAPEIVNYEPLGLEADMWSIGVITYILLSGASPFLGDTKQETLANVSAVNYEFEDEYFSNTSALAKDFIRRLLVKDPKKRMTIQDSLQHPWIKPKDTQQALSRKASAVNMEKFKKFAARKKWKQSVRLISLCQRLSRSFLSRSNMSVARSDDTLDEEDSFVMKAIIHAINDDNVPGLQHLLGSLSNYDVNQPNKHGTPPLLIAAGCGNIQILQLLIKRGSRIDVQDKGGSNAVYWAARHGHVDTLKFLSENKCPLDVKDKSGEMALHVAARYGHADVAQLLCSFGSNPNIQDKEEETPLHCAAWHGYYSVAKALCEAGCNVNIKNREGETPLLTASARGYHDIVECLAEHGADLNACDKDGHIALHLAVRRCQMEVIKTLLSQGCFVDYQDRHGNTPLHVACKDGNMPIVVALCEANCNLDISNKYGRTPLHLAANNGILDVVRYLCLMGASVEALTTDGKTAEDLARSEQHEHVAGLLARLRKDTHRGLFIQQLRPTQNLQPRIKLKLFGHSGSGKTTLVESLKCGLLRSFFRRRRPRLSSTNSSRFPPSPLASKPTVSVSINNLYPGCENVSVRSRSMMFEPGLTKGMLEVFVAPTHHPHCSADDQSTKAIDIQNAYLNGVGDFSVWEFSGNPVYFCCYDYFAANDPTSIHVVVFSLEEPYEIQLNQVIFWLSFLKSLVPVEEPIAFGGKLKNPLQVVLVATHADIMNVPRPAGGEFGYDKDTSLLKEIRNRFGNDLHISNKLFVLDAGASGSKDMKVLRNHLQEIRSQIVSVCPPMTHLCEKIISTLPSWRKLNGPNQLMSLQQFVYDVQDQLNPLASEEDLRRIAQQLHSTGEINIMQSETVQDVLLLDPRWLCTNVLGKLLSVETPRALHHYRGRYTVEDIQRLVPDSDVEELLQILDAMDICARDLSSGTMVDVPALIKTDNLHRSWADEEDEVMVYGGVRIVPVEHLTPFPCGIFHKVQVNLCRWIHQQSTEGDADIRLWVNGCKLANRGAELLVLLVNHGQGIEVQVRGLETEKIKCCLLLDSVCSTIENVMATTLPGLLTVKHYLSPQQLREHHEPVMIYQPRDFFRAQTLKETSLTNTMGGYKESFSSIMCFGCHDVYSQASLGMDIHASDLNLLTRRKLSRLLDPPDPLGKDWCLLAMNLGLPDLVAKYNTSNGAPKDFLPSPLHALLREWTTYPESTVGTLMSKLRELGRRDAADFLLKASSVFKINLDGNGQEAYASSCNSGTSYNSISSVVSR
Chain of ROCK1 (Q13464 whole entry, species assumed): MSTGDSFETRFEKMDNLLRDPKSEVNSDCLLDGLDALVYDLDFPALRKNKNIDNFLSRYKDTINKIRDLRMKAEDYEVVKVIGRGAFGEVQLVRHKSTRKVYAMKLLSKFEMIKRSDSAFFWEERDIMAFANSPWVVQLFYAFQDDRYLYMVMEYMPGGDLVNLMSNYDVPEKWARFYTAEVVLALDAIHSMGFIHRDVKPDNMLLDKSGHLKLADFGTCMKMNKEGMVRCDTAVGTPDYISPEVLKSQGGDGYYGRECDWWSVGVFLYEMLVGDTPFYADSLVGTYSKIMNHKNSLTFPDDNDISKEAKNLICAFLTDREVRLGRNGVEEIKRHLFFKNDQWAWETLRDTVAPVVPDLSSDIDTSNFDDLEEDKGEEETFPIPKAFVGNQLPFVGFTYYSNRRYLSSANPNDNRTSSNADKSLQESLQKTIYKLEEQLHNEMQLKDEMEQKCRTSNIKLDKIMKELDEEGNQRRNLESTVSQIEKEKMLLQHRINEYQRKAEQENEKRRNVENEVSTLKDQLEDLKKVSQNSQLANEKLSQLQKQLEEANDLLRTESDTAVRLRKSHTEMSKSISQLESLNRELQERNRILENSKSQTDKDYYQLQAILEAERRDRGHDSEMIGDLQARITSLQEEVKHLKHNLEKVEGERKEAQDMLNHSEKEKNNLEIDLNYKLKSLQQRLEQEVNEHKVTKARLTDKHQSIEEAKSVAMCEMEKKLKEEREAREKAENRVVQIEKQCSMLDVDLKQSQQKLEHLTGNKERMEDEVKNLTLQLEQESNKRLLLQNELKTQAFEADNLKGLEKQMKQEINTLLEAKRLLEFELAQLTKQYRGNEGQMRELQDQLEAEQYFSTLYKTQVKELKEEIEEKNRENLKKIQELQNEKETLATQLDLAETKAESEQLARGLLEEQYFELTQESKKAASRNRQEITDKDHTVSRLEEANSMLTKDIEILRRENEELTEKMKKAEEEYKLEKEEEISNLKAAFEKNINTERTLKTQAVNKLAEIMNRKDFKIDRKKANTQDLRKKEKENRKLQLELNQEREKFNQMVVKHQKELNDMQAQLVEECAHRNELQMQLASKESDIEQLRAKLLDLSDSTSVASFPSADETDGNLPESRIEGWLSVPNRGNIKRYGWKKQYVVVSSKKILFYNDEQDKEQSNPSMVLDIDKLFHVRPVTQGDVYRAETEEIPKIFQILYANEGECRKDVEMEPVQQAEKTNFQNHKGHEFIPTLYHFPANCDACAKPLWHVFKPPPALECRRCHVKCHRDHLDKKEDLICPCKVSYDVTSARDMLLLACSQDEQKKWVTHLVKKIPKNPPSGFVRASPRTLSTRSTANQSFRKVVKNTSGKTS
Chain of JNK2 (P45984 whole entry, species assumed): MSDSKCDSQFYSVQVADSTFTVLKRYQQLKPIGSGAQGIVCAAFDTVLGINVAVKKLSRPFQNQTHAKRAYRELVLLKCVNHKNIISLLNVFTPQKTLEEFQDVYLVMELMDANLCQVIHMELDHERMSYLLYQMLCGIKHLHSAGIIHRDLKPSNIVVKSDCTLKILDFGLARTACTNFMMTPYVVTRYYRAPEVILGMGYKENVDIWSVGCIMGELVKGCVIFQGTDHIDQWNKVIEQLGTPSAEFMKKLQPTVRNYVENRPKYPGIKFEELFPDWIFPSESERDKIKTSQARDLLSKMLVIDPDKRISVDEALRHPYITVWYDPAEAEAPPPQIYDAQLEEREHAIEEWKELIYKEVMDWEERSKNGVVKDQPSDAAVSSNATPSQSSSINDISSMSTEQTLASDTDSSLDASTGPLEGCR
Chain of GSK-3-BETA (P49841 whole entry): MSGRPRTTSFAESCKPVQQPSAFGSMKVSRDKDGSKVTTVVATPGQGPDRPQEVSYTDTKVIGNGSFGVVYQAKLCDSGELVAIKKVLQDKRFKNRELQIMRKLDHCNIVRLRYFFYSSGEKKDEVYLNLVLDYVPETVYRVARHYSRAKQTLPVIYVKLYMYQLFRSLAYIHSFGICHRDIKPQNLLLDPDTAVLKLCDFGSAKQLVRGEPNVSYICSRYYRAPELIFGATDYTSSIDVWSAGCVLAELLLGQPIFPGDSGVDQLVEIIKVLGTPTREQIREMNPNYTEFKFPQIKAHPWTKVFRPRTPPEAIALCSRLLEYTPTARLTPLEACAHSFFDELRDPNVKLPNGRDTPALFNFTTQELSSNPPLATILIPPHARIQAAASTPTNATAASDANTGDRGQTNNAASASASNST
Chain of 2YF/3wt + NRG Ba/F3 cells (HER2YF/HER3wt) (P04626 whole entry Y1005F/Y1023F/Y1112F/Y1127F/Y1139F/Y1196F/Y1221F/Y1222F/Y1248F): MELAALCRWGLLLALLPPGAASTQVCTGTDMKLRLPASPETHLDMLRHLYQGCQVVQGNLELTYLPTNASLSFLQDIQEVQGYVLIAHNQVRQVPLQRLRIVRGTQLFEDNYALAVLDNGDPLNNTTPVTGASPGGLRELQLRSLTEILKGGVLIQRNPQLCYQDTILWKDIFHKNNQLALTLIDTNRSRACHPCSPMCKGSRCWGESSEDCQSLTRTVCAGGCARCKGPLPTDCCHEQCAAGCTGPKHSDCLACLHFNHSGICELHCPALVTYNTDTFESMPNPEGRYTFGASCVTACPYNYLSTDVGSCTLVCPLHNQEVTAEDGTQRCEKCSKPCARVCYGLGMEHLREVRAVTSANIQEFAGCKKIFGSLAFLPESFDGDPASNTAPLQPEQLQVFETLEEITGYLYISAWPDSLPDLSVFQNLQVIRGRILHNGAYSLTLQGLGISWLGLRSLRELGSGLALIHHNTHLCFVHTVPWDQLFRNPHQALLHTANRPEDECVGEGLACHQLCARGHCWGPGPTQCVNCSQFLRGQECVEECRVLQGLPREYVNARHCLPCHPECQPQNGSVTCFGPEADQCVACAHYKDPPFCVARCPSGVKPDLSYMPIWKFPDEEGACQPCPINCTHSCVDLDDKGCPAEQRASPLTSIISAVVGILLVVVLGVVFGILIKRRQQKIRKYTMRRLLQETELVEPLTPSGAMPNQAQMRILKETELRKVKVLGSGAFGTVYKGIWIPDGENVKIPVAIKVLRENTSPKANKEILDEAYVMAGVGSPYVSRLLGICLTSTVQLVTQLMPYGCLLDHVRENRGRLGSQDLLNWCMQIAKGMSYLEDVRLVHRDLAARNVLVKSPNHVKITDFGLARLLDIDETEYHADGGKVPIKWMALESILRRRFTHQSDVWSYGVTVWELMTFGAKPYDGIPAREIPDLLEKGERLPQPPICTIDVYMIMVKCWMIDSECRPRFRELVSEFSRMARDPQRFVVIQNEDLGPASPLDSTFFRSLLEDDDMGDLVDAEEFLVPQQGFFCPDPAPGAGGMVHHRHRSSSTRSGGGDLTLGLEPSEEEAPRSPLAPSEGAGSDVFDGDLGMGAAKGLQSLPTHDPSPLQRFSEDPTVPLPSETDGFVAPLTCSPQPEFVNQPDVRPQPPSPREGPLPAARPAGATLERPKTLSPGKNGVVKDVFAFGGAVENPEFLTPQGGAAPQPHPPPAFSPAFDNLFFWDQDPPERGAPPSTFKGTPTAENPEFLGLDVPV

Row | Structure (SMILES) | GI50 ([1]; read-out: IC50, 2YF/3wt + NRG; Table 4; ± S.D., n = 3; 48 h Cell Titer Glo) [nM] | efficacy on signaling, 15 min pre-treat vs simultaneous addition with NRG ([2]; MCF-7, serum starved 24 h) | IC50 [3] [nM] | inhibition at 1 µM [4] [%] | GI50 ([1]; Table 4; ± S.D., n = 3; 48 h Cell Titer Glo; read-out: IC50, 2YF/3wt + NRG) [nM] | shift in ability to inhibit signaling +/- pre-incubation ([2]; MCF-7, 15 min pre-treat vs simultaneous NRG) | inhibition at 1 µM [5] [%] | inhibition at 1 µM [6] [%] | inhibition at 1 µM [7] [%] | inhibition at 0.1 µM ([4]; compound at 100 nM) [%] | inhibition at 0.1 µM ([5]; compound at 100 nM) [%] | inhibition at 0.1 µM ([6]; compound at 100 nM) [%] | inhibition at 0.1 µM ([7]; compound at 100 nM) [%]
1 | CS(=O)(=O)CCNCc1ccc(-c2ccc3ncnc(Nc4ccc(OCc5cccc(F)c5)c(Cl)c4)c3c2)o1 [lapatinib] | 63.6 ± 12.5 | reduced efficacy of lapatinib when simultaneously added with NRG | > 3330 | – | – | – | – | – | – | – | – | – | –
2 | COc1ccc(-c2ccoc2)cc1Nc1ncnc2[nH]cc(-c3cc[nH]n3)c12 [compound 3, N-(5-(furan-3-yl)-2-methoxyphenyl)-5-(1H-pyrazol-3-yl)-7H-pyrrolo[2,3-d]pyrimidin-4-amine] | – | – | 2540 ± 217 | 16 | 6.8 ± 0.2 | little to no shift | -1 | 40 | 7 | – | – | – | –
3 | COc1ccc(-c2ccco2)cc1Nc1ncnc2[nH]nc(-c3ccco3)c12 [compound 2, 3-(furan-2-yl)-N-(5-(furan-2-yl)-2-methoxyphenyl)-1H-pyrazolo[3,4-d]pyrimidin-4-amine] | – | – | – | 1.16 | – | – | 1.43 | 68.8 | 6.62 | 0.155 | -0.52 | 20.5 | 1.07
